In patent US20210127673A1, “HERBICIDES” (SYNGENTA PARTICIPATIONS AG, priority 2016, published 2021):

Assays:
Assay type in all cases: in vivo
Conditions in all cases: evaluated after 13 days
[1] = system: Triticum aestivium (TRZAW); assay: Pre-emergence herbicidal activity, Triticum aestivium; parameters: key: 5=total damage to plant; 0=no damage to plant
Method in brief: (§1)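 First, seeds were sown in standard soil and held one day under glasshouse conditions. Next, soil was sprayed with the active ingredient formulated in 50:50 acetone/water plus 0.5% Tween 20. Plants then grew at 24/16 °C day/night with 14 h light and 65% humidity before evaluation after 13 days.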

Avena fatua (AVEFA) [2] = assay: Pre-emergence herbicidal activity, Avena fatua; parameters: key: 5=total damage to plant; 0=no damage to plant
Method in brief: as §1

[3] = system: Alopecurus myosuroides (ALOMY); assay: Pre-emergence herbicidal activity, Alopecurus myosuroides; parameters: key: 5=total damage to plant; 0=no damage to plant
Method in brief: as §1

[4] = system: Echinochloa crus-galli (ECHCG); assay: Pre-emergence herbicidal activity, Echinochloa crus-galli; parameters: key: 5=total damage to plant; 0=no damage to plant
Method in brief: as §1

Lolium perenne (LOLPE) [5] = assay: Pre-emergence herbicidal activity, Lolium perenne; parameters: key: 5=total damage to plant; 0=no damage to plant
Method in brief: as §1

Setaria faberi (SETFA) [6] = assay: Pre-emergence herbicidal activity, Setaria faberi; parameters: key: 5=total damage to plant; 0=no damage to plant
Method in brief: as §1

[7] = system: Triticum aestivium (TRZAW); assay: Post-emergence herbicidal activity, Triticum aestivium; parameters: key: 5=total damage to plant; 0=no damage to plant
Method in brief: (§2)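 Pot-grown plants in standard soil were sprayed 8 days after sowing with active ingredient in acetone/water (50:50) containing 0.5% Tween 20. Glasshouse at 24/16 °C day/night, 14 h light, 65% humidity, watered twice daily. Damage scored after 13 days on 0 (none) to 5 (total) scale.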

Avena fatua (AVEFA) [8] = assay: Post-emergence herbicidal activity, Avena fatua
Method in brief: as §2

[9] = system: Alopecurus myosuroides (ALOMY); assay: Post-emergence herbicidal activity, Alopecurus myosuroides; parameters: key: 5=total damage to plant; 0=no damage to plant
Method in brief: as §2

[10] = system: Echinochloa crus-galli (ECHCG); assay: Post-emergence herbicidal activity, Echinochloa crus-galli; parameters: key: 5=total damage to plant; 0=no damage to plant
Method in brief: as §2

Lolium perenne (LOLPE) [11] = assay: Post-emergence herbicidal activity, Lolium perenne
Method in brief: as §2

Setaria faberi (SETFA) [12] = assay: Post-emergence herbicidal activity, Setaria faberi; parameters: key: 5=total damage to plant; 0=no damage to plant
Method in brief: as §2

SMILES	Control of TRAZW after pre-emergence application (score 0-5) ([1]; 1000 g/ha)	Control of AVEFA after pre-emergence application (score 0-5) (Avena fatua (AVEFA) [2]; 1000 g/ha)	Control of ALOMY after pre-emergence application (score 0-5) ([3]; 1000 g/ha)	Control of ECHCG after pre-emergence application (score 0-5) ([4]; 1000 g/ha)	Control of LOLPE after pre-emergence application (score 0-5) (Lolium perenne (LOLPE) [5]; 1000 g/ha)	Control of SETFA after pre-emergence application (score 0-5) (Setaria faberi (SETFA) [6]; 1000 g/ha)	Control of TRAZW after post-emergence application (score 0-5) ([7]; 1000 g/ha)	Control of AVEFA after post-emergence application (score 0-5) (Avena fatua (AVEFA) [8]; 1000 g/ha)	Control of ALOMY after post-emergence application (score 0-5) ([9]; 1000 g/ha)	Control of ECHCG after post-emergence application (score 0-5) ([10]; 1000 g/ha)	Control of LOLPE after post-emergence application (score 0-5) (Lolium perenne (LOLPE) [11]; 1000 g/ha)	Control of SETFA after post-emergence application (score 0-5) (Setaria faberi (SETFA) [12]; 1000 g/ha)	Control of TRAZW after pre-emergence application (score 0-5) ([1]; 250 g/ha)	Control of AVEFA after pre-emergence application (score 0-5) (Avena fatua (AVEFA) [2]; 250 g/ha)	Control of ALOMY after pre-emergence application (score 0-5) ([3]; 250 g/ha)	Control of ECHCG after pre-emergence application (score 0-5) ([4]; 250 g/ha)	Control of LOLPE after pre-emergence application (score 0-5) (Lolium perenne (LOLPE) [5]; 250 g/ha)	Control of SETFA after pre-emergence application (score 0-5) (Setaria faberi (SETFA) [6]; 250 g/ha)	Control of TRAZW after post-emergence application (score 0-5) ([7]; 250 g/ha)	Control of AVEFA after post-emergence application (score 0-5) (Avena fatua (AVEFA) [8]; 250 g/ha)	also measured
CN1CCN(c2ccc(-c3cncc(F)c3)nc2C(F)(F)F)C1=O [Compound B46]	0	1	0	2	0	4	0	3	0	4	2	4	–	–	–	–	–	–	–	–	–
CC(C)(C)OC(=O)Nc1ccc(-c2cncc(C(F)F)c2)nc1C(F)(F)F [Compound B5]	0	0	0	2	0	4	0	1	1	3	1	4	–	–	–	–	–	–	–	–	–
O=C(NOCC(F)F)Nc1ccc(-c2cncc(F)c2)nc1C(F)(F)F [Compound B110]	0	0	0	3	0	4	0	3	0	3	1	4	–	–	–	–	–	–	–	–	–
O=C(NCc1cccnc1)Nc1ccc(-c2cncc(F)c2)nc1C(F)(F)F [Compound B97]	–	–	–	–	–	–	–	–	–	–	–	–	0	0	0	0	0	0	0	2	Control of ALOMY after post-emergence application (score 0-5) ([9]; 250 g/ha): 0; Control of ECHCG after post-emergence application (score 0-5) ([10]; 250 g/ha): 1; Control of LOLPE after post-emergence application (score 0-5) (Lolium perenne (LOLPE) [11]; 250 g/ha): 1; Control of SETFA after post-emergence application (score 0-5) (Setaria faberi (SETFA) [12]; 250 g/ha): 1
O=C(Nc1ccc(-c2cncc(F)c2)nc1C(F)(F)F)N1CCS(=O)(=O)C1 [Compound B116, N-[6-(5-fluoro-3-pyridyl)-2-(trifluoromethyl)-3-pyridyl]-1,1-dioxo-1,3-thiazolidine-3-carboxamide]	0	2	0	4	1	5	1	3	1	4	3	5	–	–	–	–	–	–	–	–	–
CSCCCOC(=O)Nc1ccc(-c2cncc(F)c2)nc1C(F)(F)F [Compound B83]	0	2	0	4	2	5	1	4	0	5	3	5	–	–	–	–	–	–	–	–	–
O=C(Nc1ccc(-c2cncc(F)c2)nc1C(F)(F)F)OC1CCOCC1 [Compound B93]	–	–	–	–	–	–	–	–	–	–	–	–	0	2	0	4	1	5	0	4	Control of ALOMY after post-emergence application (score 0-5) ([9]; 250 g/ha): 0; Control of ECHCG after post-emergence application (score 0-5) ([10]; 250 g/ha): 5; Control of LOLPE after post-emergence application (score 0-5) (Lolium perenne (LOLPE) [11]; 250 g/ha): 3; Control of SETFA after post-emergence application (score 0-5) (Setaria faberi (SETFA) [12]; 250 g/ha): 5
CCCOC(=O)Nc1ccc(-c2cncc(F)c2)nc1C(F)(F)F [Compound B42]	0	3	1	4	1	5	2	4	1	5	3	5	–	–	–	–	–	–	–	–	–
Cc1cnc(CNC(=O)Nc2ccc(-c3cncc(F)c3)nc2C(F)(F)F)cn1 [Compound B92]	–	–	–	–	–	–	–	–	–	–	–	–	0	1	0	1	0	5	0	3	Control of ALOMY after post-emergence application (score 0-5) ([9]; 250 g/ha): 0; Control of ECHCG after post-emergence application (score 0-5) ([10]; 250 g/ha): 3; Control of LOLPE after post-emergence application (score 0-5) (Lolium perenne (LOLPE) [11]; 250 g/ha): 1; Control of SETFA after post-emergence application (score 0-5) (Setaria faberi (SETFA) [12]; 250 g/ha): 4
CN(C(=O)N1CCOCC1)c1ccc(-c2cncc(F)c2)nc1C(F)(F)F [Compound B67]	0	0	0	3	1	4	1	2	1	4	1	4	–	–	–	–	–	–	–	–	–
